Source: patent US7025968B2, “CMV vaccines” (ChemoCentryx, Inc., priority 2000, dated 2006)

Legend:
[1] = molecular target: T1, US28 (Human cytomegalovirus, UniProt P69332); details: Kledal et al., 1998; read-out: KI of binding to US28; cited from earlier work
T1 sequence (P69332 1-354): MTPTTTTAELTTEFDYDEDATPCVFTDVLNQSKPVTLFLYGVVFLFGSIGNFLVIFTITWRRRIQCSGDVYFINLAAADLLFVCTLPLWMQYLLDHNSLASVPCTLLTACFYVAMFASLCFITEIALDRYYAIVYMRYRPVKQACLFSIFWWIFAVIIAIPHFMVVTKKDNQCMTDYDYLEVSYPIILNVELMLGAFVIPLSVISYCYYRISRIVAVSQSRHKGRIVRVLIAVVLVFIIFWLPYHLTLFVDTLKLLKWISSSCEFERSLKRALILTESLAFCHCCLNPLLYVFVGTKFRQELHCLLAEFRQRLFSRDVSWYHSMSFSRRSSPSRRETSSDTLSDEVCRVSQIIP

[2] = tested on: HCMV virions lacking US28 (Toledo deltaUS28); assay: 125I-fractalkine binding to virions (Example 4), US28-deleted HCMV; parameters: species or system human CMV strain Toledo deltaUS28; details: 3 hours at 4° C., FIG. 7
Protocol: (§1) Human dermal fibroblast (HDF) were infected at an MOI of 3 with human CMV strain Toledo or a Toledo strain in which the US28 gene had been replaced with a green fluorescent protein/gpt resistance cassette (Toledo deltaUS28) (see, e.g., Vieira, J. et al. (1998) J. Virol. 72:S158-65). Alternatively, rhesus dermal fibroblasts (RhDF) were infected at an MOI of 3 with rhesus CMV strain 68.1 (see ATCC # VR-677). At 96 hours post infection supernatants were collected.
(§2) Supernatants were cleared by two spins at 1,500 rpm for 5 minutes in a bench top centrifuge. Virions were pelleted from the supernatant for 30 minutes at 10,000 rpm in a Beckman JA-21 or J-14 centrifuge or other similar centrifuge and resuspended in 0.5 ml TN buffer (0.05 M Tris/HCl, pH 7.4, 0.1M NaCl) then layered onto a 5 ml sucrose density gradient (20% to 70% w/v sucrose in TN) in a SW 50 centrifuge tube. Gradients were spun 90 minutes at 24,000 rpm in a Beckman SW50 centrifuge at 10° C. […]
(§3) Following incubation, the assay wells were harvested under vacuum using filter plates, pre-soaked with PEI solution. Scintillation fluid was added, the plates sealed and the radioactivity in the various wells counted.

[3] = tested on: virions with deletion of US28 from the genome (TolΔUS28); assay: 125I-fractalkine binding to purified US28-deleted HCMV virions (Example 1); details: FIG. 5
Protocol: (§4) Human dermal fibroblasts were infected with HCMV strain Toledo or HCMV TolΔUS28 (Streblow et al., 1999, Cell 99:511-20) at an MOI of 0.01 and maintained at 37° C. and 5% CO2 in Dulbecco's minimal essential medium with 10% fetal calf serum and fed as necessary. At day 15 post infection supernatant was collected and clarified by two rounds of centrifugation at 400 g. Virions from the clarified supernatant were pelleted at 10,000 g, resuspended in TN (50 mM TRIS-Cl pH 7.5, 100 mM NaCl), and purified over two consecutive 20-70% sucrose gradients by standard techniques (Britt W J., 1984, Virology 135: 369-78). Virions were resuspended in 500 ul of assay buffer (20 mM HEPES, 140 mM NaCl, 1 mM CaCl2, 5 mM MgCl2, and with 0.2% bovine serum albumin) and 0.09 mL added to each well of assay plates containing serial dilutions of fractalkine (concentrations between 0-250 nM) in triplicate.
(§5) Then 0.09 mL of ^125I-fractalkine diluted in assay buffer (final concentration ˜2-10 fM, with ˜30,000 cpm per well) was added, the plates sealed and incubated for approximately 3 hours at 4° C. on a shaker platform. The assay plates were harvested using Packard filter plates, pre-soaked in PEI solution, on the vacuum harvest apparatus. Scintillation fluid (35 μL) was added to all wells, the plates were sealed and counted in a Top Count scintillation counter. […]

[4] = tested on: Rhesus dermal fibroblasts infected with Rhesus CMV; assay: radioligand binding assay, 125I-fractalkine on rhCMV-infected cells (Example 3); details: unlabeled fractalkine vs 125I-fractalkine ~50 pM, 2-4 hours at 4° C., FIG. 6; read-out: IC50, reduction of binding of labeled fractalkine to the receptor by 50%
Protocol: Radioligand binding assays were carried our in the following manner. The target cells typically used in these assays were Rhesus dermal fibroblasts which had been infected with Rhesus; CMV for 3-7 days. Lots of cells verified for fractalkine binding were frozen until ready for use. For the assay, cells were thawed, washed, and resuspended in assay buffer (20 mM HEPES pH 7.1, 140 mM NaCl, 1 mM CaCl2, 5 mM MgCl2, and 0.2% bovine serum albumin) to a concentration of from 4×10^5 to 5×10^6 cells/ml.
Serial dilutions of unlabeled fractalkine were prepared as a 10× solution in 20% DMSO, and 0.02 ml was placed in assay plates. Next 0.09 ml of cells was added to the assay plates containing the unlabeled fractalkine. Lastly, 0.09 ml of ^125I-fractalkine diluted in assay buffer (final concentration ˜50 pM, with 20,000-50,000 cpm per well) was added, the plates sealed and incubated for 2-4 hours at 4° C. on a shaker platform. Assay plates were harvested using Packard GF/B filter plates (pre-soaked in 0.3% polyethyleneimmine (PEI) solution) on a Packard vacuum cell harvester. Scintillation fluid was added to all wells, the plates were sealed and then counted in a Top Count scintillation counter. Control wells containing either diluent only (for total counts) or excess unlabeled fractalkine (1 μg/ml, for non-specific binding) were used to calculate the percent of total inhibition. […]

[5] = tested on: rhCMV virions purified from RHDF cells; assay: 125I-fractalkine binding to virions (Example 4), rhCMV; parameters: species or system rhesus CMV strain 68.1; details: 3 hours at 4° C., FIG. 7
Protocol: as §1, §2, §3

[6] = tested on: Wild type HCMV virions expressing US28; assay: 125I-fractalkine binding to virions (Example 4), wild type HCMV; parameters: species or system human CMV strain Toledo; details: 3 hours at 4° C., FIG. 7
Protocol: as §1, §2, §3

[7] = molecular target: wild type virions (Toledo); assay: 125I-fractalkine competition binding to purified HCMV virions (Example 1); parameters: species or system HCMV strain Toledo; details: about 3 hours at 4° C., FIG. 5, read-out: IC50, unlabeled fractalkine competing off labeled fractalkine
Protocol: as §4, §5

In the case of “fractalkine: CX3C chemokine, tends to be cell bound; binds with very high affinity to the US28 receptor of HCMV”, the Ki [1] is given as ~0.05 nM, the “binding of radiolabeled fractalkine to virions” value [2] is given as “do not bind fractalkine” and the “binding of labeled fractalkine to virions” value [3] is given as “virtually no binding”. For the same substance, the IC50 [4] was 0.044 nM, the “binding of radiolabeled fractalkine to virions” value [5] was “also bind to fractalkine” and the “binding of radiolabeled fractalkine to virions” value [6] was “bind fractalkine tightly”. The IC50 [7] was ~0.04 nM.
